Assays:
Experiment in all cases: biochemical
Set-up in all cases: radiometric methyltransferase assay with tritiated SAM, IC50
PRMT5-MEP50 = PRMT5-MEP50 (Homo sapiens, UniProt O14744)
Experimental: (§1) The methyltransferase selectivity was assessed at two compound concentrations of 1 and 10 μM by radiometric assays using tritiated-SAM. For methyltransferases: MLL1, MLL3, EZH1 (PRC2), and EZH2 (PRC2), G9a, GLP, SUV39H1, SUV39H2, SUV420H1, SUV420H2, SETD2, SETD8, SETDB1, SETD7, PRMT1, PRMT3, PRMT4, PRMT5/ MEP50 complex, PRMT6, PRMT7, PRMT8, PRMT9, PRDM9, SMYD2, SMYD3, DNMT1, and BCDIN3D the incorporation of a tritium-labeled methyl group into biotinylated substrate was monitored using scintillation proximity assay (SPA). Briefly, a 10 μL reaction containing ^3H-SAM and substrate at concentrations close to the apparent Km values for each enzyme (balanced conditions) was prepared. The reactions were quenched with 10 μL of 7.5 M guanidine hydrochloride; 180 μL of 20 mM Tris buffer (pH 8.0) were added, and the mixture was transferred to a 96-well FlashPlate and incubated for 1 h. The counts per minute (CPM) was measured on a TopCount plate reader. The CPM in the absence of compound or enzyme was defined as 100% activity and background (0%), respectively, for each dataset[74]–[76]. Selectivity of SGC8158 against 342 kinases was evaluated in a kinase panel TR-FRET assay at 1 and 0.1 μM compound in duplicates as described before. Briefly, tagged kinases were incubated with compound and staurosporine-based fluorescent probe where the binding was detected using Tb conjugated anti-tag antibody energy transfer to the probe. Excitation wavelength was 337 nm and fluorescent emission signal was measured for Tb (486 nm) and fluorescent probe (BODIPY, 515 nm). Specific and non-specific binding was determined in the absence and presence of unlabeled staurosporine. Assays using biotinylated H2B (23–37) as a substrate were performed in buffer (20 mM Tris–HCl, pH 8.5, 0.01% Tween-20, and 5 mM DTT) containing 5 nM PRMT7, 1.1 µM ^3H-SAM (Cat.# NET155V250UC; Perkin Elmer; www.perkinelmer.com) and 0.3 µM H2B (23–37). The reaction mixtures were incubated for 60 min at 23 °C. To stop the enzymatic reactions, 10 µL of 7.5 M guanidine hydrochloride was added, followed by 180 µL of buffer (20 mM Tris, pH 8.0), mixed and then transferred to a 96-well FlashPlate (Cat.# SMP103; Perkin Elmer; www.perkinelmer.com). After mixing, the reaction mixtures in Flash plates were incubated for 1 h and the CPM were measured using Topcount plate reader (Perkin Elmer, www.perkinelmer.com). The CPM counts in the absence of compound for each dataset were defined as 100% activity. In the absence of the enzyme, the CPM counts in each dataset were defined as background (0%). The IC50 values were determined using GraphPad Prism 7 software. For the kinetic analysis of HSPA8 methylation by PRMT7, the assay mixture contained 20 mM Tris–HCl, pH 8.5, 0.01% Tween-20, and 5 mM dithiothreitol (DTT), 1 mM MgCl2, 1 mM ATP where indicated, 250 nM PRMT7, fixed concentration (20 µM) of SAM, various concentrations (up to 40 µM) of HSPA8; or fixed concentration (10 µM) of HSPA8 with different concentrations of SAM (up to 20 µM). […] To determine the mode of action, the experiments were performed in the presence of fixed biotinylated H2B peptide (residues 23–37) or HSPA8 substrate concentration and increasing SAM concentration or at fixed concentration of SAM and varying concentration of the substrate. Twenty µL of reaction mixtures were incubated at 23 °C for 60 min. To stop reactions, 100 µL of 10% trichloroacetic acid (TCA) was added, mixed and transferred to filter-plates (Millipore; cat.# MSFBN6B10; www.millipore.com). Plates were centrifuged at 930 × g (Allegra X-15R—Beckman Coulter, Inc.) for 2 min followed by two additional 10% TCA washes and one ethanol wash followed by centrifugation. Plates were dried and 30 µL MicroScint-O (

PRMT1 = PRMT1 (Homo sapiens, UniProt Q99873)
Chain of PRMT1 (Q99873 whole entry): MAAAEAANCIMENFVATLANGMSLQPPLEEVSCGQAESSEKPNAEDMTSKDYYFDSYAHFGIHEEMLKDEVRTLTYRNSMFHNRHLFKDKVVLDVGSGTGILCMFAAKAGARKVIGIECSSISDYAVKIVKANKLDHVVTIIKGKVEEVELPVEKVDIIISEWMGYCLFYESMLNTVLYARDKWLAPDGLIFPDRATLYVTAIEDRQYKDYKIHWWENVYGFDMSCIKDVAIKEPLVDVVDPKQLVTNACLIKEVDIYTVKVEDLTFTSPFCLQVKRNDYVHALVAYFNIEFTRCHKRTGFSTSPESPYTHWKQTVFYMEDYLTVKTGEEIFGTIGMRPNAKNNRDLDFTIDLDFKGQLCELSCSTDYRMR
Experimental: as §1

PRMT3 = PRMT3 (Homo sapiens, UniProt O60678)
Chain of PRMT3 (O60678 whole entry): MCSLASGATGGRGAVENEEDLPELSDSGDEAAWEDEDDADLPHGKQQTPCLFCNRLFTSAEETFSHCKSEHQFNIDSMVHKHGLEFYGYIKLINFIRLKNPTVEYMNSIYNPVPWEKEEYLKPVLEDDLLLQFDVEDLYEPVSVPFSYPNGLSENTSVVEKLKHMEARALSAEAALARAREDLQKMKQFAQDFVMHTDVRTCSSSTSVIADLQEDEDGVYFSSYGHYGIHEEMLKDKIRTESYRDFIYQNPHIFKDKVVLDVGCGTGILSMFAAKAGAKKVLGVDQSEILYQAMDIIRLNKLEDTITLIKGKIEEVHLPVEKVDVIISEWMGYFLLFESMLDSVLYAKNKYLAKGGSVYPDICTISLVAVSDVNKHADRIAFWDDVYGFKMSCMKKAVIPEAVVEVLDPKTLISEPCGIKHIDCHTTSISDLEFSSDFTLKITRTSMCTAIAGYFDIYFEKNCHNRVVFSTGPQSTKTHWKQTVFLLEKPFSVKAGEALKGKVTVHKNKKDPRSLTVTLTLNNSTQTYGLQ
Experimental: as §1

PRMT6 = PRMT6 (Homo sapiens, UniProt Q96LA8)
Chain of PRMT6 (Q96LA8 whole entry): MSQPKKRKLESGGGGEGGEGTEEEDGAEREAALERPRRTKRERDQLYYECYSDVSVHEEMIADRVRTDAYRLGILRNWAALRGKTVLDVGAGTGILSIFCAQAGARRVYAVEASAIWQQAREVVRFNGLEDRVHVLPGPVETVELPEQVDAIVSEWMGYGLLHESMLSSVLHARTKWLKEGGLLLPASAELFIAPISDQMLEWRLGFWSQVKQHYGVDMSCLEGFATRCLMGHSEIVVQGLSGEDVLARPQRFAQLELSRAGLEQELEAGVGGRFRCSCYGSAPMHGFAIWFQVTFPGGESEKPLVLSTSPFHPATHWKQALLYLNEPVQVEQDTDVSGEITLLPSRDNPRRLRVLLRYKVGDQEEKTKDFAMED
Experimental: as §1

PRMT4 = molecular target: T1, PRMT4 (Homo sapiens, UniProt Q86X55)
T1 construct: gene CARM1
T1 sequence (Q86X55 1-608): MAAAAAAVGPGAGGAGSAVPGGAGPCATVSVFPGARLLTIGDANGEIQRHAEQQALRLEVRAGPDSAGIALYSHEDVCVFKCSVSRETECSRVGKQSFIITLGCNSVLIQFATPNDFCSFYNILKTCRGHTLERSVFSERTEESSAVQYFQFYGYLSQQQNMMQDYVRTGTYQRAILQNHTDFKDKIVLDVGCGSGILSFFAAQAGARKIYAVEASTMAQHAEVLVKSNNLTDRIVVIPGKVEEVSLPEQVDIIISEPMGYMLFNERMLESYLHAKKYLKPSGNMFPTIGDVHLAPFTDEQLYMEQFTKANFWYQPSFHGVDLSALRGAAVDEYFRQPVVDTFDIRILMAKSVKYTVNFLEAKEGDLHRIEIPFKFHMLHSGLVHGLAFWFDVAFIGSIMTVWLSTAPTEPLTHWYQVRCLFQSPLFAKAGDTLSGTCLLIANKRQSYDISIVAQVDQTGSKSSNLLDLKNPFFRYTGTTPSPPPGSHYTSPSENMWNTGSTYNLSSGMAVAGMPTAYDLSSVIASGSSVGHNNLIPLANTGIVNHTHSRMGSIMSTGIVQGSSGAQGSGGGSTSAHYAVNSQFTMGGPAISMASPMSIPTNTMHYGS
Experimental: as §1

Chain of PRMT5-MEP50 (O14744 whole entry): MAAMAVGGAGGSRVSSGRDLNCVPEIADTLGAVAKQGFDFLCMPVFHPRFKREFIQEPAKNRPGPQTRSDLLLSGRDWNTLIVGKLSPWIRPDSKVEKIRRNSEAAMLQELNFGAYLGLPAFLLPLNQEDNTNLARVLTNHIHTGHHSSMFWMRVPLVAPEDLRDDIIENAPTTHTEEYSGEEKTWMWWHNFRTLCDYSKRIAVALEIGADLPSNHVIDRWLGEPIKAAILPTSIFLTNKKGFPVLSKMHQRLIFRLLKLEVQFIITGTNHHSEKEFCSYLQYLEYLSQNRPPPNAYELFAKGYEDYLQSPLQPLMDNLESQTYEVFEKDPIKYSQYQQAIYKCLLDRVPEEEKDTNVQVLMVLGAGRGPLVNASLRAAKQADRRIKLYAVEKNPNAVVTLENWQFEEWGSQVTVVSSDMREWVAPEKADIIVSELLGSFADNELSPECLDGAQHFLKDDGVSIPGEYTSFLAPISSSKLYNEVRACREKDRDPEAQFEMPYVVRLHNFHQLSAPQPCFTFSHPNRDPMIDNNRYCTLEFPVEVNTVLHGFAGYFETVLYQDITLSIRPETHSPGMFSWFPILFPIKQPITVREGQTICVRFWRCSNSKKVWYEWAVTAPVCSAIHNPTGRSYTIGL
Chain of PRMT5-MEP50 (Q9BQA1 whole entry partner): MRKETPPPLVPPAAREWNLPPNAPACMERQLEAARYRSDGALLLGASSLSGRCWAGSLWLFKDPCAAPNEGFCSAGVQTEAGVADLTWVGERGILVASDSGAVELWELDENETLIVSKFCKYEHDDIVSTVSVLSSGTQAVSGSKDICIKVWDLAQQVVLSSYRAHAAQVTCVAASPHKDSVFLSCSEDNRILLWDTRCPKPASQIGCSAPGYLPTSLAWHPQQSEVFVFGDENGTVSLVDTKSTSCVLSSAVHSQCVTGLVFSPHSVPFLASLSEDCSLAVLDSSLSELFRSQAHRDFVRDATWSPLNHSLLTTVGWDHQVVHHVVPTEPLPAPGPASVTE

## Nc1ncnc2c1ncn2[C@@H]1O[C@H](CSCCCNCc2cccc(-c3ccc(Cl)cc3)c2)[C@@H](O)[C@H]1O [SGC8172]
PRMT5-MEP50
  IC50: 44 nM
PRMT1
  IC50: > 5000 nM
PRMT3
  IC50: 269 nM
PRMT6
  IC50: ~1200 nM
PRMT4
  IC50: 3.6 nM
